We go through 3 molecules from patent publication US20200369618A1, “ASYMMETRIC DERIVATIVES OF P[…] THE DIN[…], PROCESS OF PREPARING AND USE THEREOF” (NEARMEDIC INTERNATIONAL LIMITED, priority 2017, published 2020).

The nature of series [1]: Assessment of cytotoxic properties (MTS assay, 48 h). It counts as cell-based. The settings on record: dog, MDCK ECAAC cells, read-out: CC50 (toxic dose of the drug, causing the death of 50% of the monolayer cells). Here is the method: Assessment of cytotoxic properties of asymmetric gossypol derivatives.
In 96-well flat-bottomed test plates, MDCK ECAAC (Sigma cat. ? 85011435) cells are placed at 18,000 cells per well in a volume of 100 μl of complete medium containing 10% fetal calf serum (FCS). Cells are cultured for 24 hours in CO2-incubator at 37° C. Then the liquid medium is removed from the wells of the test plates, leaving the immobilized living cells. Then wells are once washed with the 100 μl of serumless media. The medium is replaced with 100 μl per well of the dilutions of test compounds in support medium with 2% of serum, in 4 replicates. Each plate is prepared with 6 control wells containing 100 μl of fresh support medium without test compounds. The plates are incubated in CO2-incubator at 37° C. for 48 hours. Then liquid contents are removed from the wells, and 100 μl of support medium and 20 μl of MTS (Promega, cat. ? G3581) are added and mixed. The cells are incubated for 3 hours in CO2-incubator at 37° C., and the relative optical density of the solution in each well is measured with a plate spectrophotometer at 492 nm against its absorption at a reference wavelength of 620 nm. The cytotoxicity (CC50) is calculated using the standard method.
(In general: Tetrazolium dyes change colour on reduction, which living cells bring about.)

The subject of series [2] is influenza virus A/Puerto Rico/8/34 (H1N1). Description: organism not typed. The class given is cell-based. The conditions noted are these: for SI (selectivity index, SI=CC50/IC50): CC50 in MDCK cells / IC50 against influenza A/Puerto Rico/8/34 (H1N1); for IC50: MDCK cells, influenza A/Puerto Rico/8/34 (H1N1), 48 hours, read-out: IC50 (compound concentration, at which 50% of virus titer is inhibited).

Each structure is given as a SMILES string. Values after ≈ are worked out from the molar mass of the structure shown.

A word on the CC50: it is the concentration at which the toxic effect on the cells reaches its halfway point. With `Cc1cc2c(C(C)C)c(O)c(O)cc2c(O)c1-c1c(C)cc2c(C(C)C)c(O)c(O)c(C=O)c2c1O` (racemic) [I, 1,1′,6,6′,7,7′-hexahydroxy-5,5′-diisopropyl-3,3′-dimethyl-2,2′-binaphthalene-8-carbaldehyde], the CC50 at 48 h in series [1] came out at 5.5 µg/mL (≈ 11.2 µM). In addition, in series [2], the “SI (selectivity index, SI=CC50/IC50)” value is listed as 29,36 and the IC50 is 0.2 µg/mL (≈ 0.408 µM).
On to `CC1=C(C2=C(C)C(=O)c3c(c(C=O)c(O)c(O)c3C(C)C)C2=O)C(=O)c2cc(O)c(O)c(C(C)C)c2C1=O` [II, 6,6′,7,7′-tetrahydroxy-5,5′-diisopropyl-3,3′-dimethyl-1,1′,4,4′-tetraoxo-1,1′,4,4′-tetrahydro-2,2′-binaphthalene-8-carbaldehyde], for which the CC50 at 48 h in series [1] came out at 3.8 µg/mL (≈ 7.33 µM). Moreover, in series [2], the “SI (selectivity index, SI=CC50/IC50)” value is 4,75 and the IC50 worked out at 0.8 µg/mL (≈ 1.54 µM).
The matching figures for `Cc1cc2c(C(C)C)c(O)c(O)c(C=O)c2c(O)c1-c1c(C)cc2c(C(C)C)c(O)c(O)c(C=O)c2c1O` [Gossypol, gossypol, reference compound]: 4 µg/mL (≈ 7.71 µM), 3,24 and 1.2 µg/mL (≈ 2.31 µM).
